Measured values from patent EP0393786B1, “New retro-inverse, one- or more bond bearing analogues of thymopentin, a method for synthesizing the same and their employment for the preparation of pharmaceutical” (SCLAVO S.p.A., priority 1989, dated 1990).

How the values were obtained:
[1] = system: lymphocytes which secrete antibodies (PFC); experiment: Hemolysis plate test (PFC) according to Jerne and Nordin, in vivo immunostimulating activity; design: species or system inbred C3H/HeNCrlBr male mice; conditions: 100 ng of peptide p.o. two hours after SRBC i.v.; spleen lymphocytes after four days; IgM PFC
Experimental: In particular, the so-called "hemolysis plate test" has been employed (PFC) performed according to the procedure disclosed by Jerne and Nordin.
Said test is carried out by administering through intravenous route to inbred C3H/HeNCrlBr male mice (Calco-Italia) aged 10-12 weeks and of body weight about 25 g, a pyrogen-free saline solution (0.2 ml) containing 1-2 x 10⁸ blood red cells of ram (SRBC). After two hours, groups of three mice each are treated p.o. (intragastric intubation) with 0.2 ml of saline solution (control) or with 0.2 ml of saline solution containing 100 ng of the peptide under test. After four days, the mice are sacrificed and the spleens are drawn and mechanically disrupted to separate the lymphocytes. The lymphocytes so isolated are washed with minimal soil containing Earle salts (MEM) (3 x 15 ml) and then resuspended into the same soil (1 ml) at a final concentration of 150,000 cells. Each cell suspension (0.1 ml) is then diluted 1/100 with MEM soil, and 100 µl of each dilution is added in double to wells of microplates containing 25 µl of MEM soil, 25 µl of a 10 % solution of SRBC antigens and 25 µl of guinea-pig complement at a final dilution of 1/64. The whole suspension is immediately transferred by capillarity from each well onto overlapped glass holder-slides. Such slides, with their edges sealed by means of paraffin, are then put for incubation into a thermostatic chamber at 37°C for one hour.
At the end of such time, the direct hemolysis plates are counted by means of a light-contrast viewer, such plates pointing out the number of lymphocytes which secrete antibodies (PFC). The antibodies so put into evidence are of the class of the IgM's, which are proper of the primary antibody response.

[2] = Stability to enzymic hydrolysis in heparinized human plasma (half-life); conditions: for half-life, times as much as that of thymopentin: relative to thymopentin
Experimental: The incubations were carried out at 37°C, and the drawings of the plasmatic mixtures, each one of 100 µl, were stopped at the various times by addition of trifluoroacetic acid in the ratio of 10%, with successive centrifugation at 10,000 x g, for five minutes. A portion of the supernatant is subjected to chromatography under conditions suitable to put into evidence the change in concentration of the peptide tested at the various time.

Compound	Plate formation % control [1]	half-life ([2]; human)	half-life, times as much as that of thymopentin [2]	half-life ([2]; test parallel to thymopentin)
CC(C)C(C(=O)N[C@H](CC(=O)O)NC(=O)[C@H](CCCCN)NC(=O)[C@@H](N)CCCNC(=N)N)C(=O)N[C@@H](Cc1ccc(O)cc1)C(=O)O (stereo partly drawn) [Example 2, CH₃COOH.H-Arg-Lys-gAsp-(R,S)mVal-Tyr-OH]	132 % control	10 min	about 7 times	
CC(C)[C@H](NC(=O)[C@H](CC(=O)O)NC(=O)C(CCCCN)C(=O)NC(N)CCCNC(=N)N)C(=O)N[C@@H](Cc1ccc(O)cc1)C(=O)O (some centres unmarked) [reference compound]		22 min		
CC(C)[C@@H](NC(=O)C(Cc1ccc(O)cc1)C(=O)O)NC(=O)[C@H](CC(=O)O)NC(=O)C(CCCCN)C(=O)N[C@@H](N)CCCNC(=N)N (stereo partly drawn) [Example 1, CH₃COOH.H-g-Arg-(R,S)mLys-Asp-gVal-(R,S)mTyr-OH]	196 % control	> 360 min		> 360 min
CC(C)[C@@H](NC(=O)C(Cc1ccc(O)cc1)C(=O)O)NC(=O)[C@H](CC(=O)O)NC(=O)[C@H](CCCCN)NC(=O)[C@@H](N)CCCNC(=N)N (stereo partly drawn) [Example 3, [gVal⁴,(R,S)mTyr⁵]TP5]	190 % control	2.5 min	about 2 times	
H-Arg-Lys-Asp-Val-Tyr-OH [TP5, reference compound]	137 % control			
